Measured values: patent US20060069132A1, “Azolecarboxamide herbicides” (priority 2004, published 2006)

Columns and labels:
pigweed = test: Test C pre-/postemergence herbicide test; format: in vivo, Amaranthus retroflexus
In short: (§1)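 Greenhouse-grown plants were evaluated visually 12 to 14 days after treatment, with 100 meaning complete control and 0 no effect. Application was preemergence, or postemergence at 2 to 18 cm.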

large crabgrass = test: Test A pre-/postemergence herbicide test; format: in vivo, Digitaria sanguinalis
In short: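 Plants are held in greenhouse about ten days after treatment, then compared with untreated controls and scored 0 (no effect) to 100 (complete control). Preemergence dosing is a directed soil spray on sown sandy loam; postemergence dosing is spray to runoff at 2–10 cm height.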

giant foxtail = test: Test C pre-/postemergence herbicide test; format: in vivo, Setaria faberi
In short: as §1

woolly cupgrass = test: Test C pre-/postemergence herbicide test; format: in vivo, Eriochloa villosa
In short: as §1

kochia = test: Test C pre-/postemergence herbicide test; format: in vivo, Kochia scoparia
In short: as §1

rice = test: Test B pre-/postemergence herbicide test; format: in vivo, Oryza sativa; settings: 0 = no effect, 100 = complete control, preemergence
In short: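 Seeds were planted and treated preemergence with compounds formulated in a non-phytotoxic solvent mixture containing surfactant, while plants at the 1- to 4-leaf stage (2 to 18 cm) received postemergence sprays. Flooded paddy plants were grown to the 2-leaf stage. After 13 to 15 days in a greenhouse, injury was visually rated 0–100 against untreated controls.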

[1] = tested on: common (oilseed) sunflower; test: Test C pre-/postemergence herbicide test; format: in vivo, Helianthus annuus; settings: for Plant response rating, Sunflower / Plant response rating (0 = no effect, 100 = complete control), Sunflower: preemergence; for Sunflower plant response rating: Preemergence, scale 0 to 100, 0 no effect, 100 complete control
In short: as §1

barnyardgrass = test: Test C flooded paddy test; format: in vivo, Echinochloa crus-galli; settings: for Plant response rating, Barnyardgrass: 500 g ai/ha, visual rating after 12 to 14 days
In short: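 Visual rating, 0 (no effect) to 100 (complete control), vs. controls at 12–14 d in greenhouse. Postemergence: 1–4-leaf plants, 2–18 cm. Paddy: flooded, barnyardgrass at 2-leaf stage.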

eastern black nightshade = test: Test C pre-/postemergence herbicide test; format: in vivo, Solanum ptycanthum; settings: for Plant response rating, Nightshade / Plant response rating (0 = no effect, 100 = complete control), Nightshade: preemergence; for Nightshade plant response rating: Preemergence, scale 0 to 100, 0 no effect, 100 complete control
In short: as §1

morningglory = test: Test C pre-/postemergence herbicide test; format: in vivo, Ipomoea coccinea; set-up: key to Plant response rating, Morningglory: 0 = no effect, 100 = complete control; settings: for Morningglory plant response rating: Preemergence, 500 g ai/ha, scale 0 to 100, 0 no effect, 100 complete control
In short: as §1

[2] = 62 g ai/ha, preemergence, scale 0 to 100
[3] = 125 g ai/ha, scale 0 (no effect) to 100 (complete control), visual, 12 to 14 days, preemergence
[4] = 250 g ai/ha, scale 0-100, preemergence
[5] = 500 g ai/ha, scale 0 to 100 (0 no effect, 100 complete control), visual, 12 to 14 days, preemergence
[6] = Postemergence, 500 g ai/ha, 0 to 100 scale, 0 no effect, 100 complete control
[7] = Postemergence, 2000 g ai/ha, 0 to 100 scale, 0 no effect, 100 complete control
[8] = Preemergence, 2000 g ai/ha, visual rating, 0 to 100 scale (0 no effect, 100 complete control)
[9] = 500 g ai/ha, scale 0 to 100 (0 no effect, 100 complete control), visual, 12 to 14 days
[10] = 62 g ai/ha, scale 0 to 100 (0 no effect, 100 complete control)
[11] = 250 g ai/ha, scale of 0 to 100, 0 is no effect, 100 is complete control
[12] = scale 0 to 100 (0 no effect, 100 complete control)
[13] = 125 g ai/ha, scale 0 (no effect) to 100 (complete control), visual, 12 to 14 days
[14] = Postemergence, 500 g ai/ha, scale 0 to 100
[15] = Postemergence, 250 g ai/ha, scale 0 to 100, 0 no effect, 100 complete control
[16] = Preemergence, 500 g ai/ha, scale 0 to 100, 0 no effect, 100 complete control
[17] = postemergence, 125 g ai/ha, scale 0 to 100
[18] = postemergence, 62 g ai/ha, scale 0 to 100
[19] = Preemergence, 500 g ai/ha, visual rating, 0 to 100 scale (0 no effect, 100 complete control)
[20] = 250 g ai/ha, scale 0 to 100 (0 no effect, 100 complete control), visual, 12 to 14 days, preemergence
[21] = 125 g ai/ha, scale of 0 to 100, 0 is no effect, 100 is complete control

CCn1nc(C(C)(C)C)cc1C(=O)Nc1cncc(C(=O)N(C)C)n1 [Compound 287]
Plant response rating, Pigweed (pigweed; [2]): 100
Plant response rating, Pigweed (pigweed; [3]): 100
Plant response rating, Pigweed (pigweed; [4]): 100
Plant response rating, Pigweed (pigweed; [5]): 100
Crabgrass, Large plant response rating (large crabgrass; [6]): 10
Plant response rating, Crabgrass, Large (large crabgrass; [7]): 60
Crabgrass, Large plant response rating (large crabgrass; [8]): 100
Crabgrass, Large plant response rating (large crabgrass; preemergence, 500 g ai/ha, visual injury, 0 to 100 scale (0 no effect, 100 complete control)): 75
Plant response rating, Foxtail, Giant (giant foxtail; [2]): 0
Plant response rating, Foxtail, Giant (giant foxtail; [3]): 70
Plant response rating, Foxtail, Giant (giant foxtail; [4]): 85
Plant response rating, Foxtail, Giant (giant foxtail; [5]): 100
Plant response rating, Cupgrass, Woolly (woolly cupgrass; [2]): 0
Plant response rating, Cupgrass, Woolly (woolly cupgrass; [3]): 0
Plant response rating, Cupgrass, Woolly (woolly cupgrass; [4]): 10
Plant response rating, Cupgrass, Woolly (woolly cupgrass; [5]): 35
Plant response rating, Kochia (kochia; [2]): 85
Plant response rating, Kochia (kochia; [3]): 100
Plant response rating, Kochia (kochia; [4]): 100
Plant response rating, Kochia (kochia; [5]): 100
Rice plant response rating (0 to 100 scale) (rice; 125 g ai/ha): 80
Plant response rating, Rice (rice; 500 g ai/ha, visual rating): 90
Plant response rating, Sunflower ([1]; 62 g ai/ha, scale 0 to 100): 90
Plant response rating, Sunflower ([1]; 250 g ai/ha, scale 0-100): 100
Plant response rating, Sunflower [1, 9]: 100
Barnyardgrass plant response rating (barnyardgrass; [10]): 0
Barnyardgrass plant response rating (barnyardgrass; 125 g ai/ha, scale 0 to 100 (0 no effect, 100 complete control)): 0
Barnyardgrass plant response rating (barnyardgrass; [11]): 0
Plant response rating, Barnyardgrass (barnyardgrass; [12]): 25
Plant response rating, Nightshade (eastern black nightshade; 62 g ai/ha, scale 0 to 100): 95
Plant response rating, Nightshade (eastern black nightshade; [13]): 100
Plant response rating, Nightshade (eastern black nightshade; 250 g ai/ha, scale 0-100): 100
Plant response rating, Nightshade (eastern black nightshade; [9]): 100

CCn1nc(C(C)(C)C)cc1C(=O)Nc1cccc(C(C)=NO)c1 [Compound 108]
Plant response rating (0 = no effect, 100 = complete control), Pigweed (pigweed; 62 g ai/ha, preemergence): 100
Plant response rating, Pigweed (pigweed; [3]): 100
Pigweed plant response rating (pigweed; [14]): 100
Plant response rating, Pigweed (pigweed; [15]): 100
Pigweed plant response rating (pigweed; [16]): 100
Plant response rating, Pigweed (pigweed; [17]): 100
Plant response rating, Pigweed (pigweed; [18]): 60
Crabgrass, Large plant response rating (large crabgrass; [6]): 65
Plant response rating, Crabgrass, Large (large crabgrass; [7]): 85
Crabgrass, Large plant response rating (large crabgrass; [19]): 85
Crabgrass, Large plant response rating (large crabgrass; [8]): 100
Plant response rating (0 = no effect, 100 = complete control), Foxtail, Giant (giant foxtail; 62 g ai/ha, preemergence): 100
Plant response rating, Foxtail, Giant (giant foxtail; [3]): 100
Plant response rating, Foxtail, Giant (giant foxtail; [20]): 100
Foxtail, Giant plant response rating (giant foxtail; [14]): 70
Foxtail, Giant plant response rating (giant foxtail; [16]): 100
Plant response rating, Foxtail, Giant (giant foxtail; [17]): 50
Plant response rating, Foxtail, Giant (giant foxtail; [18]): 30
Plant response rating (0 = no effect, 100 = complete control), Cupgrass, Woolly (woolly cupgrass; 62 g ai/ha, preemergence): 30
Plant response rating, Cupgrass, Woolly (woolly cupgrass; [3]): 50
Plant response rating, Cupgrass, Woolly (woolly cupgrass; [20]): 50
Cupgrass, Woolly plant response rating (woolly cupgrass; [14]): 40
Plant response rating, Cupgrass, Woolly (woolly cupgrass; [15]): 40
Cupgrass, Woolly plant response rating (woolly cupgrass; [16]): 80
Plant response rating, Cupgrass, Woolly (woolly cupgrass; [17]): 40
Plant response rating, Cupgrass, Woolly (woolly cupgrass; [18]): 20
Plant response rating (0 = no effect, 100 = complete control), Kochia (kochia; 62 g ai/ha, preemergence): 100
Plant response rating, Kochia (kochia; [3]): 100
Kochia plant response rating (kochia; [14]): 90
Plant response rating, Kochia (kochia; [15]): 90
Kochia plant response rating (kochia; [16]): 100
Plant response rating, Kochia (kochia; [17]): 80
Plant response rating, Kochia (kochia; [18]): 60
Plant response rating (0 = no effect, 100 = complete control), Morningglory (morningglory; 62 g ai/ha, preemergence): 40
Morningglory plant response rating (morningglory): 90
Plant response rating, Morningglory (morningglory; [17]): 60
Plant response rating, Morningglory (morningglory; [18]): 30
Plant response rating (0 = no effect, 100 = complete control), Sunflower ([1]; 62 g ai/ha): 20
Plant response rating, Sunflower [1, 13]: 20
Sunflower plant response rating ([1]; 500 g ai/ha): 20
Barnyardgrass plant response rating (barnyardgrass; [10]): 30
Barnyardgrass plant response rating (barnyardgrass; [21]): 40
Barnyardgrass plant response rating (barnyardgrass; [11]): 60
Plant response rating, Barnyardgrass (barnyardgrass; [12]): 70
Plant response rating (0 = no effect, 100 = complete control), Nightshade (eastern black nightshade; 62 g ai/ha): 100
Plant response rating, Nightshade (eastern black nightshade; [13]): 100
Nightshade plant response rating (eastern black nightshade; 500 g ai/ha): 100

CC(=NO)c1cccc(NC(=O)c2cc(C(C)(C)C)nn2C)c1 [Compound 102]
Plant response rating (0 = no effect, 100 = complete control), Pigweed (pigweed; 62 g ai/ha, preemergence): 90
Plant response rating, Pigweed (pigweed; [3]): 100
Pigweed plant response rating (pigweed; [16]): 100
Crabgrass, Large plant response rating (large crabgrass; [6]): 60
Plant response rating, Crabgrass, Large (large crabgrass; [7]): 80
Crabgrass, Large plant response rating (large crabgrass; [19]): 95
Crabgrass, Large plant response rating (large crabgrass; [8]): 100
Plant response rating (0 = no effect, 100 = complete control), Foxtail, Giant (giant foxtail; 62 g ai/ha, preemergence): 10
Plant response rating, Foxtail, Giant (giant foxtail; [3]): 50
Plant response rating, Foxtail, Giant (giant foxtail; [20]): 80
Foxtail, Giant plant response rating (giant foxtail; [16]): 80
Plant response rating (0 = no effect, 100 = complete control), Cupgrass, Woolly (woolly cupgrass; 62 g ai/ha, preemergence): 0
Plant response rating, Cupgrass, Woolly (woolly cupgrass; [3]): 10
Plant response rating, Cupgrass, Woolly (woolly cupgrass; [20]): 20
Cupgrass, Woolly plant response rating (woolly cupgrass; [16]): 40
Plant response rating (0 = no effect, 100 = complete control), Kochia (kochia; 62 g ai/ha, preemergence): 0
Plant response rating, Kochia (kochia; [3]): 30
Kochia plant response rating (kochia; [16]): 60
Plant response rating (0 = no effect, 100 = complete control), Morningglory (morningglory; 62 g ai/ha, preemergence): 30
Plant response rating, Morningglory (morningglory; [3]): 70
Morningglory plant response rating (morningglory): 80
Plant response rating (0 = no effect, 100 = complete control), Sunflower ([1]; 62 g ai/ha): 0
Plant response rating, Sunflower [1, 13]: 20
Sunflower plant response rating ([1]; 500 g ai/ha): 20
Barnyardgrass plant response rating (barnyardgrass; [10]): 10
Barnyardgrass plant response rating (barnyardgrass; [21]): 50
Barnyardgrass plant response rating (barnyardgrass; [11]): 50
Plant response rating, Barnyardgrass (barnyardgrass; [12]): 70
Plant response rating (0 = no effect, 100 = complete control), Nightshade (eastern black nightshade; 62 g ai/ha): 90
Plant response rating, Nightshade (eastern black nightshade; [13]): 100
Nightshade plant response rating (eastern black nightshade; 500 g ai/ha): 100
